{
  "source": "the METLIN SMRT retention time set (Domingo-Almenara et al. 2019)",
  "data": [
    {"test": "gradient 5% acetonitrile 3 min, to 50% in 2 min, to 85% in 15 min, held 3 min, 100 µL/min", "settings": "column: Zorbax Extend-C18 2.1 x 50 mm; eluents: water / acetonitrile, 0.1% formic acid", "how_it_was_run": "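Using water and acetonitrile that each contained 0.1% formic acid, mixtures of ~100 pure standards were separated at 100 μL/min on a Zorbax Extend-C18 column (2.1 × 50 mm, 1.8 μm). The HPLC fed a quadrupole time-of-flight mass spectrometer working in positive and negative ionization mode, with dead and dwell volumes of 40 μL and 900 μL. Data were acquired over 3 months. Retention time was read from computationally picked adduct peaks after manual inspection of each.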", "units": {"RP-LC retention time": "s"}, "values": [
      {"smiles": "COc1ccc(/C=C/C(=O)c2c(OC)cc(O)cc2OC)cc1", "RP-LC retention time": 1160},
      {"smiles": "CCn1cc(C(=O)NC2CCCC2)c2nn(-c3ccccc3)c(=O)c-2c1", "RP-LC retention time": 851},
      {"smiles": "COC(=O)c1ccc(NC(=O)N2CCCC2c2cc(C)on2)cc1", "note": "(centres undefined)", "RP-LC retention time": 739},
      {"smiles": "COc1cccc(Cn2c(C(=O)N3CCC(C(=O)NC4CCCCC4)CC3)cc3ccsc32)c1", "RP-LC retention time": 1000},
      {"smiles": "CCN1CCN(C(=O)c2cn(-c3ccc(S(=O)(=O)N4CCCC(C)C4)cn3)cn2)CC1", "note": "(centres undefined)", "RP-LC retention time": 659},
      {"smiles": "CCCNC(=O)N1CCC(CCOc2ccncc2)CC1", "RP-LC retention time": 571},
      {"smiles": "Cc1ccc2c(c1)N(CCCC(=O)N1CCN(Cc3cn(C)c4ccccc34)CC1)C(=O)CO2", "RP-LC retention time": 706},
      {"smiles": "CCOC(=O)c1nn(-c2cc(C(=O)OC)cc(C(=O)OC)c2)cc1O", "RP-LC retention time": 769},
      {"smiles": "O=C(NCc1ccc(Cl)cc1)C1CC(=O)N(CCc2c[nH]c3ccc(F)cc23)C1", "note": "(centres undefined)", "RP-LC retention time": 802},
      {"smiles": "O=C(NCc1ccco1)c1ccc2c(c1)CCCN2S(=O)(=O)c1ccccc1", "RP-LC retention time": 914},
      {"smiles": "O=C(Cn1nc2c3sc(N4CCCC4)nc3ncn2c1=O)Nc1ccc(F)cc1", "RP-LC retention time": 718},
      {"smiles": "COc1cccc(-c2cc3n(n2)CCCN(C(=O)Cc2ccsc2)C3)c1", "RP-LC retention time": 587},
      {"smiles": "CC(C)S(=O)(=O)c1cc2c(cc1NC(=O)c1c(F)cccc1F)n(C)c(=O)n2C", "RP-LC retention time": 792},
      {"smiles": "CCOc1ccc(Cl)cc1S(=O)(=O)N1CCC(C(=O)NCCO)CC1", "RP-LC retention time": 692},
      {"smiles": "CC1=NS(=O)(=O)N(Cc2ccccc2)C=C1C(=O)OCc1noc(-c2cccc(Cl)c2)n1", "RP-LC retention time": 1130},
      {"smiles": "Cc1ccc(CN2CCn3nnc(CCC(=O)N4CCCC4)c3C2)s1", "RP-LC retention time": 651},
      {"smiles": "O=C(CN1C(=O)CCc2cc(Br)ccc21)Nc1ccccn1", "RP-LC retention time": 761},
      {"smiles": "O=S(=O)(NC1CCCC1)c1ccc(-c2nnc(C3CC3)o2)o1", "RP-LC retention time": 812},
      {"smiles": "COc1ccc(CCNC(=O)N2CCC(c3nnc(C(F)(F)F)o3)CC2)cc1", "RP-LC retention time": 764},
      {"smiles": "Cc1ccc(-n2nc(N3CCCC(C(=O)Nc4cccc(C)c4C)C3)ccc2=O)cc1Cl", "note": "(centres undefined)", "RP-LC retention time": 999},
      {"smiles": "CC(C)n1cc(S(=O)(=O)NCc2cccc(Cl)c2)c2cccnc21", "RP-LC retention time": 928},
      {"smiles": "Fc1ccccc1N1CCN(c2ncccc2-c2nc(-c3ccccc3)no2)CC1", "RP-LC retention time": 1390},
      {"smiles": "CC(C)NC(=O)N1CCNC(=O)C1", "RP-LC retention time": 540},
      {"smiles": "O=C(NCc1ccc(F)cc1Cl)c1csc(C(=O)NC2CCCC2)n1", "RP-LC retention time": 968},
      {"smiles": "Cc1c(-c2ccnc(N3CCOCC3)n2)cnc2nc(-c3ccc(Cl)cc3)nn12", "RP-LC retention time": 1030},
      {"smiles": "Cc1ccc(NC(=O)NC2CCN(c3ccccc3)C2=O)cc1F", "note": "(centres undefined)", "RP-LC retention time": 855},
      {"smiles": "COc1cccc(Sc2ccc(N3CCCC(C(=O)NCc4ccc5c(c4)OCO5)C3)nn2)c1", "note": "(centres undefined)", "RP-LC retention time": 826},
      {"smiles": "COCc1nc2cccnc2n1C1CCN(C(=O)Nc2cc(Cl)c(OC)cc2OC)CC1", "RP-LC retention time": 723},
      {"smiles": "CCOc1ccccc1NC(=O)N1CCc2nc(OCCOC)ccc2C1", "RP-LC retention time": 871},
      {"smiles": "Cc1cccc(NC(=O)Nc2ccc3c(c2)CCN3S(=O)(=O)c2ccccc2)c1C", "RP-LC retention time": 984},
      {"smiles": "CCN1C(=O)c2cc(S(=O)(=O)Nc3ccc(C)cc3F)ccc2Oc2cccnc21", "RP-LC retention time": 1030},
      {"smiles": "O=C(c1ccc2c(c1)CCCN2S(=O)(=O)c1ccccc1)N1CCOCC1", "RP-LC retention time": 787},
      {"smiles": "CCN1c2ccc(F)cc2C(=O)NC12CCN(C(=O)c1ccc(OC)cc1C)CC2", "RP-LC retention time": 802},
      {"smiles": "O=C(COc1ccc(Cl)cc1)N1CCN(c2nc(CN3CCOCC3)cs2)CC1", "RP-LC retention time": 643},
      {"smiles": "CN(CC(=O)N1CCN(c2ccc(Cl)cc2)CC1)S(=O)(=O)c1c[nH]c(C(=O)N2CCCC2)c1", "RP-LC retention time": 837},
      {"smiles": "CC(C)NC(=O)N1CCCC(c2nc(C3CCOCC3)no2)C1", "note": "(centres undefined)", "RP-LC retention time": 661},
      {"smiles": "O=C(CSc1cc(N2CCN(c3ccccc3F)CC2)ncn1)NCc1cccs1", "RP-LC retention time": 931},
      {"smiles": "Cc1oc(C2CCN(C(=O)Nc3ccc(Br)cc3)CC2)nc1C(=O)N(C)C", "RP-LC retention time": 759},
      {"smiles": "Cc1nn(C)c(C)c1S(=O)(=O)N1CCc2nn(Cc3ccccc3)c(=O)n2CC1", "RP-LC retention time": 714},
      {"smiles": "CN1c2ccccc2C(=O)NC12CCN(C(=O)NCCc1ccccc1)CC2", "RP-LC retention time": 728},
      {"smiles": "CC(C)C(NC(=O)c1ccc(CN2C(=O)C3CCCN3C(=O)c3ccccc32)cc1)c1cccs1", "note": "(centres undefined)", "RP-LC retention time": 857},
      {"smiles": "O=C(Nc1nc(-c2ccc(Br)s2)cs1)c1ccc([N+](=O)[O-])s1", "RP-LC retention time": 1120},
      {"smiles": "CCSCCOC(=O)C1=C(C)NC2=C(C(=O)CCC2)C1c1ccccc1OC", "note": "(centres undefined)", "RP-LC retention time": 727},
      {"smiles": "O=C(CN1CCN(C(=O)Nc2ccc(Cl)cc2)CC1=O)NC1CC1", "RP-LC retention time": 605}
    ]}
  ]
}
